Laboratory results published in patent US20220195332A1, “DIETARY BUTYRATE AND ITS USES” (SOCIETE DES PRODUITS NESTLE S.A., priority 2019, published 2022).

Legend:
[1] = system: porcine pancreatic lipase (PPL); conditions: pig, 3 h, pH 11.5
Text: Because many fatty acids are only partially ionised at pH 6.8, direct titration gives only partial picture of the extent of lipid digestion, instead back titration to pH 11.5 or GC-FAME analysis is required to estimate the full extent of digestion.

[2] = system: rabbit gastric lipase (RGL) followed by porcine pancreatic lipase (PPL); experiment: Sequential in vitro digestion in simulated gastric fluid (SGF) followed by simulated intestinal fluid (SIF), pH-stat
Protocol: 10 wt % oil in water emulsions stabilised by 0.3 wt % polyoxyethylene sorbitan mono-oleate (Tween® 80) were prepared by mixing the Tween 80 into the oil phase at 40° C., then mixing with the water phase using a magnetic stirrer. An emulsion was then created using a Hielscher UP 400S ultrasonic probe homogeniser equipped with a 5 mm diameter rod-like probe by applying 100% amplitude at 100% cycle for 2 minutes whilst the sample was cooled using ice water.
The lipid emulsion (2 mL) containing 200 mg of fat was subjected to gastrointestinal in vitro lipolysis. The digestions were conducted in thermostated glass vessels (37° C.) in a pH-STAT setup controlled by a TIM 856 bi-burette pH-STAT (Radiometer Analytical, France). For gastric digestion, the sample was incubated for 90 minutes with 8.5 mL of simulated gastric fluid (SGF), which consisted of 150 mM NaCl, 450 U/mL pepsin, 18 U/mL rabbit gastric lipase at 37° C. and a pH of 5.5.
The intestinal digestion step was performed in the pH stat where the pH was kept constant at 6.8 by addition of NaOH (0.05 M). A bile salt mixture (bile salts prepared with tris buffer, 5 mM tris, 150 mM NaCl) and calcium solution (20 mM Ca, 176 5 mM tris, 150 mM NaCl) were added to the SGF-sample mixture. This mixture was transferred to the pH-stat, where the pH was adjusted to approximately 6.78. The intestinal digestion step starts when the temperature reaches 37±0.5° C. The pH was adjusted to pH 6.8 and after incubation of two minutes at this pH and temperature, a pancreatin solution (5 mM tris, 150 mM NaCl at pH 6.8) was added. The final composition of the intestinal fluid was 10 mM CaCl2, 12 mM mixed bile salts, 0.75 mM phospholipid, 150 mM NaCl and 4 mM tris(hydroxymethyl)aminomethane buffer. The intestinal digestion step was carried out for 3 hours in a titration manager from Radiometer. During the intestinal phase of digestion, the kinetics of digestion were followed using a pH-stat (TIM856, Radiometer) technique and expressed as titratable acid (rather than fatty acid) that was calculated by the equation: […]

CCCC(=O)OCC(COC(=O)CCC)OC(=O)CCC [tributyrin]
Extent of digestion [1]: 101.5±0.9%
Initial lipolysis rate in SIF compartment ([2]; SGF-SIF sequential digestion (90 minutes SGF pH 5.5, then SIF pH 6.8)): 44.1 ± 8.8 µmol/min
Lipolysis by gastric lipase ([2]; indicated by decreased total fatty acid release during SIF after RGL pre-exposure): ~60%
Hydrolysis in the stomach (gastric lipolysis), in words ([2]; simulated gastric compartment): extensive hydrolysis in the stomach
